Columns and labels:
HIV-1 = conditions: cited from earlier work
HCV H strain NS5B = conditions: cited from earlier work
HEP C = conditions: cited from earlier work
adenovirus = assay: Antiviral activity against adenovirus; format: cell-based
SARS-CoV-2 = format: cell-based; conditions: FIG. 32
Dengue virus = conditions: Cheung et al. 2014; cited from earlier work
ADV-3 = conditions: cited from earlier work
ENTV EV71 = conditions: cited from earlier work
HEP B = conditions: cited from earlier work
HSV-1 = conditions: cited from earlier work
ADV-8 = conditions: cited from earlier work
HSV-2 = conditions: cited from earlier work
ENTV CVB1 = conditions: cited from earlier work
ADV-11 = conditions: cited from earlier work

CC1(C)CC[C@]2(C(=O)O)CC[C@]3(C)C(=CC[C@@H]4[C@@]5(C)CC[C@H](O)C(C)(C)[C@@H]5CC[C@]43C)[C@@H]2C1 [Oleanolic acid]
anti-viral activity against HIV-1 (HIV-1): some anti-viral activity
anti-viral activity against HCV H strain NS5B (HCV H strain NS5B): some anti-viral activity
anti-viral activity against HEP C (HEP C): some anti-viral activity

C[C@H]1O[C@@H](O[C@H]2[C@@H](O)C[C@H](O[C@H]3[C@@H](O)C[C@H](O[C@H]4CC[C@@]5(C)[C@H](CC[C@@H]6[C@@H]5C[C@@H](O)[C@]5(C)[C@@H](C7=CC(=O)OC7)CC[C@]65O)C4)O[C@@H]3C)O[C@@H]2C)C[C@H](O)[C@@H]1O [digoxin, reference compound]
activity against adenovirus (adenovirus): inactive
inhibition of viral replication (SARS-CoV-2): efficacy of digoxin against the virus

CC(=O)O[C@H]1C[C@H](O[C@H]2[C@@H](O)C[C@H](O[C@H]3[C@@H](O)C[C@H](O[C@H]4CC[C@@]5(C)[C@H](CC[C@@H]6[C@@H]5C[C@@H](O)[C@]5(C)[C@@H](C7=CC(=O)OC7)CC[C@]65O)C4)O[C@@H]3C)O[C@@H]2C)O[C@H](C)[C@H]1O[C@@H]1O[C@H](CO)[C@@H](O)[C@H](O)[C@H]1O [lanatoside C]
antiviral activity against Dengue virus (Dengue virus): demonstrates antiviral activity against Dengue virus

C[C@H]1[C@H](C)CC[C@]2(C(=O)O)CC[C@]3(C)C(=CC[C@@H]4[C@@]5(C)CC[C@H](O)C(C)(C)[C@@H]5CC[C@]43C)[C@H]12 [Ursolic acid]
anti-viral activity against ADV-3 (ADV-3): some anti-viral activity
anti-viral activity against ENTV EV71 (ENTV EV71): some anti-viral activity
anti-viral activity against HIV-1 (HIV-1): some anti-viral activity
anti-viral activity against HEP B (HEP B): some anti-viral activity
anti-viral activity against HCV H strain NS5B (HCV H strain NS5B): some anti-viral activity
anti-viral activity against HSV-1 (HSV-1): some anti-viral activity
anti-viral activity against HEP C (HEP C): some anti-viral activity
anti-viral activity against ADV-8 (ADV-8): some anti-viral activity
anti-viral activity against HSV-2 (HSV-2): some anti-viral activity
anti-viral activity against ENTV CVB1 (ENTV CVB1): some anti-viral activity
anti-viral activity against ADV-11 (ADV-11): some anti-viral activity

— patent US11806359B2 (priority 2020, dated 2023)
